# Paper PMC9687021, “Bactericidal and Anti-Biofilm Activity of the FtsZ Inhibitor C109 against Acinetobacter baumannii” (Antibiotics, 2022)
# Target: T1, FtsZ (Acinetobacter baumannii, UniProt A0ABX6CKC9)
# T1 construct: full-length (1176 bp ftsZ gene), SUMO tag removed
# Test: PK/LDH coupled GTPase assay on purified FtsZ; sedimentation polymerization assay
# Type: biochemical
# T1 sequence (A0ABX6CKC9 entry or part of it): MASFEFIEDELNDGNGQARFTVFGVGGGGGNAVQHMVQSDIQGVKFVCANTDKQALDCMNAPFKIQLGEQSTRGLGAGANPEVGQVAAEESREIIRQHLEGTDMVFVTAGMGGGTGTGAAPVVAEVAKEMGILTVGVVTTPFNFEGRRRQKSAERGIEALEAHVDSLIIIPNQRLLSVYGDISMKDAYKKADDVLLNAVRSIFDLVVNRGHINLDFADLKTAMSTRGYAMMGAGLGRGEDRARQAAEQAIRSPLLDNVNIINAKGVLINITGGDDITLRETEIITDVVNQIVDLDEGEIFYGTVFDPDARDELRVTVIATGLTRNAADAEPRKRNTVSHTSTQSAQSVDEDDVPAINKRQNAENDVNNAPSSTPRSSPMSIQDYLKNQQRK
structure (smiles),measurement,value
"COC(=O)CSc1ccc2nsnc2c1[N+](=O)[O-] [C109, methyl [(4-nitro-2,1,3-benzothiadiazol-5-yl)thio]acetate]",IC50,11.8 µM
